Values quoted from earlier work as cited in patent publication US20080119444A1, “Methods and compositions for the treatment of cancer” (priority 2006, published 2008).

How the values were obtained:
HMG-CoA reductase = molecular target: T1, HMG-CoA reductase (Homo sapiens, UniProt P04035)
T1 sequence (P04035 1-888): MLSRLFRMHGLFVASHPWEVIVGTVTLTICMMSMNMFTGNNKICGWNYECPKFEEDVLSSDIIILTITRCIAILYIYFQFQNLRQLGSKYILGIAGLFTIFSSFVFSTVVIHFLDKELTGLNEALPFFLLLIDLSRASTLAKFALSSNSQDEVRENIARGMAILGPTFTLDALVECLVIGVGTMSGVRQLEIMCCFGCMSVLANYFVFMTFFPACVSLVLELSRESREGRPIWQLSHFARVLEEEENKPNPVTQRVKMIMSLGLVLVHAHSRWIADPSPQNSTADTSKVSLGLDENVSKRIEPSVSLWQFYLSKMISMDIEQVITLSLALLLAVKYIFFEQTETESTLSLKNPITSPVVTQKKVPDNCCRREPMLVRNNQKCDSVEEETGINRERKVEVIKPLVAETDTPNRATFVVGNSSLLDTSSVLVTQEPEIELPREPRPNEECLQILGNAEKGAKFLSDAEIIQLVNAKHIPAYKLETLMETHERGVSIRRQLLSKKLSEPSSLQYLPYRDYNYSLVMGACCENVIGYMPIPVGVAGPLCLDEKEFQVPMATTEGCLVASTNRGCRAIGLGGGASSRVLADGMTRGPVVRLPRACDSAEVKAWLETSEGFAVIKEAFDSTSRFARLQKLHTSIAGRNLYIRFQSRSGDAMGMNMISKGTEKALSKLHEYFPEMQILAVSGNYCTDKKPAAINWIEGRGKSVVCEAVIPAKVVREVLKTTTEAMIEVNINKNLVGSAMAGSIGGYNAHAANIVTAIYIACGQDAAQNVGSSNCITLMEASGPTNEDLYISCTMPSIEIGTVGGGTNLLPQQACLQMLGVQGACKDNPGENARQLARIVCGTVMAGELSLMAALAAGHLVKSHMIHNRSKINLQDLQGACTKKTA

early breast cancer = conditions: for contralateral breast cancers (events) / disease-free survival events / distant metastases (events) / time-to-recurrence events: median follow-up 68 months
[1] = ATAC trial
breast cancer = conditions: for disease-free survival: after 2 to 3 years of tamoxifen: switch to exemestane or continue tamoxifen, total 5 years, median follow-up 30.6 months
[2] = exemestane vs tamoxifen
[3] = in vivo
[4] = test system: endocrine-responsive breast cancer; conditions: adjuvant letrozole compared with tamoxifen, postmenopausal women
[5] = tamoxifen users
[6] = sequence tamoxifen then exemestane vs continued tamoxifen
[7] = 5 years of tamoxifen treatment, women with ER+ disease
[8] = at 15 years, ER+ (or ER unknown) tumors, 5 years of tamoxifen

Structure (SMILES) | potency relative to another statin (HMG-CoA reductase) | contralateral breast cancers (events) (early breast cancer) | disease-free survival events (early breast cancer) [events] | distant metastases (events) (early breast cancer) | time-to-recurrence events (early breast cancer) | withdrawal rate for drug-related adverse events [1] [%] | disease-free survival (breast cancer) [%] | fracture rate compared to tamoxifen | other results
CC(C)c1c(C(=O)Nc2ccccc2)c(-c2ccccc2)c(-c2ccc(F)cc2)n1CC[C@@H](O)C[C@@H](O)CC(=O)O [Atorvastatin, atorvastatin] | approximately twice as potent as simvastatin |  |  |  |  |  |  |  | 
CC(C)(C#N)c1cc(Cn2cncn2)cc(C(C)(C)C#N)c1 [anastrozole] |  | 35 | 575 | 324 | 402 | 5.1 |  |  | reduction of contralateral breast cancers (early breast cancer; anastrozole vs tamoxifen): 42%
C=C1C[C@@H]2[C@H](CC[C@]3(C)C(=O)CC[C@@H]23)[C@@]2(C)C=CC(=O)C=C12 [exemestane] |  |  |  |  |  |  | 91.5 | non-significant increase in fracture rate | absolute difference in disease-free survival (breast cancer; [6]): 4.7%; disease-free survival HR (breast cancer; [6]): 0.68; bone loss during treatment (compared to placebo): minor bone loss; diarrhea [2]: 4.3%
N#Cc1ccc(C(c2ccc(C#N)cc2)n2cncn2)cc1 [letrozole] |  |  |  |  |  |  |  | significantly increase fracture rate | grade 3, 4, or 5 cardiac events [3]: 2.1%; patients with hypercholesterolemia reported at least once during treatment [3]: 43.6%; fracture rate compared to placebo (compared to placebo): non-significant increase in fracture rate; risk of recurrent disease [4]: reduced the risk of recurrent disease
CC(C)c1nc(N(C)S(C)(=O)=O)nc(-c2ccc(F)cc2)c1/C=C/[C@@H](O)C[C@@H](O)CC(=O)O [rosuvastatin] | more potent than atorvastatin |  |  |  |  |  |  |  | 
CC/C(=C(\c1ccccc1)c1ccc(OCCN(C)C)cc1)c1ccccc1 [tamoxifen] |  | 59 | 651 | 375 | 498 | 7.2 | 86.8 |  | 10-year risk of mortality from endometrial cancer [5]: 2 per 1000; reduction of annual rate of mortality (ER+ breast cancer; [7]): 34%; reduction of annual rate of recurrence (ER+ breast cancer; [7]): 41%; absolute reduction in mortality (ER+ breast cancer; [8]): 9.2%; absolute reduction in recurrence (ER+ breast cancer; [8]): 11.8%
